How the values were obtained:
Type in all cases: cell-based
MOLT-4 cells = assay: MOLT-4 cell viability, CTG assay; settings: Homo sapiens, MOLT-4, 48 h
How it was run: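 Cells grown in RPMI 1640 with 10% FBS at 37° C, 5% CO2, then exposed to compounds for 48 h (11-point 5-fold dilution, triplicates). ATP measured by CellTiter-Glo luminescence; IC50 from four-parameter fit versus control, mean of ≥2 independent experiments.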

Bcl-xL = target: T1, Bcl-xL (Homo sapiens, UniProt Q07817); assay: HCT116 Bcl-xL degradation, capillary-based immunoassay (WES); settings: HCT116, 24 h, 9-point serial dilution
T1 construct: Measured levels of Bcl-xL protein of HCT116 cells treated with the tested compounds; host or cells: HCT116
How it was run: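 HCT116 cells treated 24 h with compound at 10/100 nM and/or 9-point dilution (quadruplicates), then lysed. Bcl-xL measured by capillary WES immunoassay, normalized to cofilin and expressed as % of untreated cells. DC50 from four-parameter curve fit.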

[1] = system: EBC-1 lung cancer cell line; assay: EBC-1 cell proliferation, CellTiter-Glo assay; settings: Homo sapiens, 120 h; Ebc-1 cell viability, CTG assay, 5 days of treatment; read-out: CTG 5 day Ebc1 GI50
How it was run: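 EBC-1 cells seeded at 1000 per well overnight, then exposed to 10-point dilutions (0.508 nM–10 μM final) for 5 days at 37 °C, in triplicate. ATP luminescence by CellTiter-Glo, normalised to untreated wells; GI50 from four-parameter logistic fit, runs valid only with at least one doubling.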

HiBiT-tagged BCL-xL = target: T2, HiBiT-tagged BCL-xL (Homo sapiens, UniProt Q07817); assay: NCI-H1650 BCL-xL protein levels, Nano-Glo HiBiT Lytic Detection; settings: NCI-H1650 expressing HiBiT-tagged BCL-xL, overnight incubation, read-out: Bcl-xl HIBIT NCIH1650 DC50
T2 construct: expressed in transfected cells; host or cells: NCI-H1650 (ATCC No. CRL-5883), engineered HiBiT cell line
How it was run: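 NCI-H1650 cells expressing HiBiT-tagged BCL-xL (5000/well) were treated overnight at 37° C with 10 concentrations, final 0.508 nM-10 μM, in triplicate. Remaining BCL-xL measured by Nano-Glo HiBiT lytic luminescence, normalized to untreated cells; 50% values by four-parameter logistic fit.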

T2 sequence (Q07817 whole entry): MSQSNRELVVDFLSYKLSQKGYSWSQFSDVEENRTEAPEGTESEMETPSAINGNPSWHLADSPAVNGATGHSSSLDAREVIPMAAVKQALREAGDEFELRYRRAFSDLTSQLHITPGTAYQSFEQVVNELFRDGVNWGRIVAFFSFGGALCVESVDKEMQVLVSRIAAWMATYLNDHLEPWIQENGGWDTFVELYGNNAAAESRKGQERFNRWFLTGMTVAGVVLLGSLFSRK
T1 sequence (Q07817 whole entry): as above

SMILES	IC50 (MOLT-4 cells) [nM]	DC50 (Bcl-xL) [nM]	GI50 [1] [nM]	DC50 (HiBiT-tagged BCL-xL) [nM]
Cc1ncsc1-c1ccc(CNC(=O)[C@@H]2C[C@@H](O)CN2C(=O)[C@@H](NC(=O)C2(F)CC2)C(C)(C)SCCCCCCCCCCCCCN(C)CCOC23CC4(C)CC(C)(CC(Cn5ncc(-c6ccc(N7CCCc8c7nnc(Nc7nc9ccccc9s7)c8C)nc6C(=O)O)c5C)(C4)C2)C3)cc1 [Example 118, 6-[3-(1,3-benzothiazol-2-ylamino)-4-methyl-6,7-dihydro-5H-pyrido[2,3-c]pyridazin-8-yl]-3-[1-[[3-[2-[13-[(2R)-2-[(1-fluorocyclopropanecarbonyl)amino]-3-[(2S,4R)-4-hydroxy-2-[[4-(4-methylthiazol-5-yl)phenyl]methylcarbamoyl]pyrrolidin-1-yl]-1,1-dimethyl-3-oxo-propyl]sulfanyltridecyl-methyl-amino]ethoxy]-5,7-dimethyl-1-adamantyl]methyl]-5-methyl-pyrazol-4-yl]pyridine-2-carboxylic acid]	7.83	> 316	84	> 1670
Cc1ncsc1-c1ccc([C@H](C)NC(=O)[C@@H]2C[C@@H](O)CN2C(=O)[C@@H](NC(=O)CCCCCCCCCCCCCN(C)CCOC23CC4(C)CC(C)(CC(Cn5ncc(-c6ccc(N7CCCc8c7nnc(Nc7nc9ccccc9s7)c8C)nc6C(=O)N(C)C)c5C)(C4)C2)C3)C(C)(C)C)cc1 [Example 148, 6-[3-(1,3-benzothiazol-2-ylamino)-4-methyl-6,7-dihydro-5H-pyrido[2,3-c]pyridazin-8-yl]-3-[1-[[3-[2-[[14-[[(1S)-1-[(2S,4R)-4-hydroxy-2-[[(1S)-1-[4-(4-methylthiazol-5-yl)phenyl]ethyl]carbamoyl]pyrrolidine-1-carbonyl]-2,2-dimethyl-propyl]amino]-14-oxo-tetradecyl]-methyl-amino]ethoxy]-5,7-dimethyl-1-adamantyl]methyl]-5-methyl-pyrazol-4-yl]-N,N-dimethyl-pyridine-2-carboxamide]	4.51	1.37	7	1
Cc1ncsc1-c1ccc(CNC(=O)[C@@H]2C[C@@H](O)CN2C(=O)[C@@H](NC(=O)C2(F)CC2)C(C)(C)C)c(OCCCCCCCCCCCCCCCCN(C)CCOC23CC4(C)CC(C)(CC(Cn5ncc(-c6ccc(N7CCCc8c7nnc(Nc7nc9ccccc9s7)c8C)nc6C(=O)O)c5C)(C4)C2)C3)c1 [Example 77, 6-[3-(1,3-benzothiazol-2-ylamino)-4-methyl-6,7-dihydro-5H-pyrido[2,3-c]pyridazin-8-yl]-3-[1-[[3-[2-[16-[2-[[[(2S,4R)-1-[(2S)-2-[(1-fluorocyclopropanecarbonyl)amino]-3,3-dimethyl-butanoyl]-4-hydroxy-pyrrolidine-2-carbonyl]amino]methyl]-5-(4-methylthiazol-5-yl)phenoxy]hexadecyl-methyl-amino]ethoxy]-5,7-dimethyl-1-adamantyl]methyl]-5-methyl-pyrazol-4-yl]pyridine-2-carboxylic acid]	4.54	> 316	167	> 1670
Cc1ncsc1-c1ccc(CNC(=O)[C@@H]2C[C@@H](O)CN2C(=O)[C@@H](NC(=O)C2(F)CC2)C(C)(C)SCCCCCCCCCCCN(C)CCOC23CC4(C)CC(C)(CC(Cn5ncc(-c6ccc(N7CCCc8c7nnc(Nc7nc9ccccc9s7)c8C)nc6C(=O)O)c5C)(C4)C2)C3)cc1 [Example 117, 6-[3-(1,3-benzothiazol-2-ylamino)-4-methyl-6,7-dihydro-5H-pyrido[2,3-c]pyridazin-8-yl]-3-[1-[[3-[2-[11-[(2R)-2-[(1-fluorocyclopropanecarbonyl)amino]-3-[(2S,4R)-4-hydroxy-2-[[4-(4-methylthiazol-5-yl)phenyl]methylcarbamoyl]pyrrolidin-1-yl]-1,1-dimethyl-3-oxo-propyl]sulfanylundecyl-methyl-amino]ethoxy]-5,7-dimethyl-1-adamantyl]methyl]-5-methyl-pyrazol-4-yl]pyridine-2-carboxylic acid]	8.25	1.17	89	> 1670

Source: patent US20240376094A2, “SELECTIVE BCL-XL PROTAC COMPOUNDS AND METHODS OF USE” (Les Laboratoires Servier, priority 2021, published 2024)
